Reference: patent US20120082659A1, “Methods And Compositions Related To Synergistic Responses To Oncogenic Mutations” (priority 2007, published 2012)

What was measured:
mp53/Ras cells [1] = assay: Xenograft tumor formation by mp53/Ras cells in nude mice; format: in vivo, mouse; settings: for tumor formation in nude mice by drug-pre-treated cells: mp53/Ras cells pre-treated in vitro with 2.5 mM, xenograft, vs untreated cells; for % Change in Tumor Volume (Perturbed vs. Control): mp53/Ras cells with gene perturbation, s.c. in nude mice, 4 weeks, vs matched vector control
Protocol: (§1) Murine mp53/Ras cells were grown at 39° C. for 2 days prior to injection. Human HT-29 and DLD-1 cells were grown in standard conditions, described above. Tumor formation was assessed by sub-cutaneous injection of 5×10^5 cells (mp53/Ras and DLD-1 cells) or 1.25×10^5 cells (HT-29) into CD-1 nude mice (Cr1:CD-1-Foxn1nu, Charles River Laboratories) in appropriate media (RPMI 1640 or DMEM) with no additives. For each replicate of all gene perturbations, 2-12 injections were performed for perturbed cells and vector controls, as indicated in FIGS. 12 and 16. Tumor size was measured by caliper at 2, 3 and 4 weeks post-injection. Tumor volume was calculated by the formula volume=(4/3)πr3, using the average of two radius measurements. Tumor reduction was calculated based on the average tumor volume following each gene perturbation as compared to the directly matched vector control tumors. Statistical significance of difference in tumor size was calculated by the Wilcoxn signed-rank test (Hollander, M. & Wolfe, D. A. Nonparametric Statistical Methods (Wiley-Interscience, Hoboken, N.J., 1998)), comparing tumors derived from perturbed cells with tumors induced by directly matching vector control cells.
Tumor formation was assessed by sub-cutaneous injection of cells into CD-1 nude mice (Cr1: CD-1-Foxn1^nu, Charles River Laboratories). Tumor size was measured by caliper at 2, 3 and 4 weeks post-injection. Significance of difference in tumor size was calculated by the Wilcoxn signed-rank test and by the t-test using directly matching vector control cells for each perturbation.
For tumor formation studies, cells were treated with HDACi as indicated above, then trypsinized, counted and injected sub-cutaneously into the flanks of CD-1 nude mice at a multiplicity of 5×10^5 cells per injection. Mice were observed and tumors measured for 4 weeks post-injection by caliper.
Murine mp53/Ras cells were grown at 39° C. for 2 days prior to injection. Human CaPan-2 and PC3 cells were grown in standard conditions, described above. Tumor formation was assessed by sub-cutaneous injection of 5×10^5 mp53/Ras cells or 7.5×10^5 CaPan-2 or PC3 cells into CD-1 nude mice (Cr1: CD-1-Foxn1^nu, Charles River Laboratories) in appropriate media (RPMI 1640 or DMEM) with no additives. For each replicate of all gene perturbations, 2-12 injections were performed for perturbed cells and vector controls. Tumor size was measured by caliper weekly for up to 6 weeks post-injection. Tumor volume was calculated by the formula volume=(4/3)πr^3, using the average of two radius measurements. Tumor reduction was calculated based on the average tumor volume following each gene perturbation as compared to the directly matched vector control tumors. Statistical significance of difference in tumor size was calculated by both the Wilcoxn signed-rank test and the t-test to assess consistency of significance calls, comparing tumors derived from perturbed cells with tumors induced by directly matching vector control cells.

[2] = test system: cooperation response genes; assay: TLDA QPCR of CRG expression in HDACi-treated mp53/Ras cells; format: cell-based, mouse; settings: 2.5 mM, 3 days, 56 CRGs tested by TLDA
Protocol: The YAMC cell system (Jat et al., 1991; Whitehead et al., 1993) and transformation of these cells by mp53/Ras are described elsewhere (Xia and Land, 2007). YAMC and mp53/Ras cells were cultured for two days at 39° C. in RPMI with 10% FBS without interferon-γ on collagen IV-coated dishes. Cells were then re-plated on collagen IV-coated dishes into the same medium containing either 2.5 mM NB, 2.5 mM VA, or no drug for 72 hours at a density of 4.58×10^5 cells per 15-cm dish. Cells were harvested for RNA isolation at this point, or used for biological assays as described below.
The TaqMan Low-Density Array (Applied Biosystems) consists of TaqMan qPCR reactions targeting the cooperation response genes available and control genes (18S rRNA, GAPDH) in a microfluidic card. TLDA were used to independently test gene expression differences observed in the CMap database which used Affymetrix arrays. To generate cDNA for qPCR analysis, quadruplicate samples of RNA was isolated from untreated YAMC cells or mp53/Ras cells treated with either 2.5 mM VA, 2.5 mM NB or no drug for 72 hours, using the RNeasy and Qiashredder kits (Qiagen). Ten μg of RNA per sample were mixed with 1× SuperScript II First Strand buffer, 10 mM DTT, 400 μM dNTP mixture, 0.3 ng random hexamer primer, 2 μL RNaseOUT RNase inhibitor and 2 μL of SuperScript II reverse transcriptase in a 100 μL reaction (all components from Invitrogen). RT reactions were carried out by denaturing RNA at 70° C. for 10 minutes, plunging RNA on to ice, adding other components, incubating at 42° C. for 1 hour and heat inactivating the RT enzyme by a final incubation at 70° C. for 10 minutes.
For each sample, 82 μL of cDNA was combined with 328 μl of nuclease free water (Invitrogen) and an equal volume of TaqMan Universal PCR Master Mix No AmpErase UNG (Applied Biosystems). The mixture was loaded into each of 8 ports on the card at 100 μL per port. Each reaction contained forward and reverse primer at a final concentration of 900 nM and a TaqMan MGB probe (6-FAM) at 250 nM final concentration. […]. The real-time RT-PCR amplifications were run on an ABI Prism 7900HT Sequence Detection System (Applied Biosystems) with a TaqMan Low Density Array Upgrade. Thermal cycling conditions were as follows: 2 min at 50° C., 10 min at 94.5° C., 40 cycles of 97° C. for 30 seconds, and annealing and extension at 59.7° C. for 1 minute. Each individual replicate cDNA sample was processed on a separate card.
Gene expression values were derived using SDS 2.2 software package (Applied Biosystems). Differential gene expression was calculated by the ΔΔCt method. Briefly, using threshold cycle (Ct) for each gene, change in gene expression was calculated for each sample comparison by the formulae: […]

mp53/Ras cells [3] = assay: Proliferation and morphology of mp53/Ras cells in adherent culture; format: cell-based, mouse; settings: for cell proliferation over time: mp53/Ras cells, 2.5 mM
Source text: (§2) These compounds affect human cancer cell line behavior in vitro in the millimolar range and even higher concentrations are required in vivo (Villar-Garea and Esteller, 2004).

HT-29 cells = assay: Xenograft tumor formation by HT-29 colon cancer cells in nude mice; format: in vivo, human; settings: HT-29 cells with gene perturbation, vs matched vector control
Protocol: as §1

YAMC cells [4] = assay: Proliferation and morphology of YAMC cells in adherent culture; format: cell-based, mouse; settings: 5 mM, three days, 10% FBS medium
Source text: as §2

mp53/Ras cells [5] = assay: Cell death / anoikis by TUNEL staining, mp53/Ras cells; format: cell-based, mouse; settings: methylcellulose without FBS or ITS-A
Protocol: (§3) The cells were re-plated at 458,000 cells per 15 cm dish in 10% FBS medium and treated for three days with 2.5 mM NB or VA at 39° C. Cells were then trypsinized and (A), (B) suspended in methylcellulose supplemented with fresh NB or VA, 10% FBS, and ITS-A at 37,000 cells per mL, or (C) suspended in methylcellulose w/o FBS, or ITS-A at 150,000 cells per mL and incubated at 39° C. for three days. Cells were extracted from the methylcellulose by repeated re-suspension in PBS w/1% BSA and centrifugation, and briefly trypsinized to break up cell aggregates. The extracted cells were labeled with 10 μM BrdU for ninety minutes prior to harvesting, fixed in cold 80% ethanol, and stained with an anti-BrdU antibody and propidium iodide to measure cell cycle progression (A), or fixed in 4% paraformaldehyde, and TUNEL-stained to measure cell death (B), (C). Error bars represent standard deviation values derived from multiple independent measurements for each sample. […]
(§4) For anoikis assays, cells were then trypsinized, counted and suspended in methylcellulose at a density of 1.5×10^5 cells/mL for an additional 72 hours in the absence of HDACi. […]
(§5) Paraformaldehyde-fixed cells were pelleted and washed with PBS containing 0.1% BSA. […] TUNEL-stained cells were analyzed by flow cytometry using a FACScalibur (Becton Dickinson). The percentage of TUNEL-positive cells was analyzed using ModFit LT for Mac v2.0.

YAMC cells [6] = assay: Cell death / anoikis by TUNEL staining, YAMC cells; format: cell-based, mouse; settings: methylcellulose without FBS or ITS-A
Protocol: as §3, §4, §5

Row | Compound | tumor formation in nude mice by drug-pre-treated cells (mp53/Ras cells [1]; four weeks) | proportion of CRGs whose expression is significantly altered (reversal of CRG signature) [2] [%] | cell proliferation over time (mp53/Ras cells [3]) | % Change in Tumor Volume (Perturbed vs. Control) (mp53/Ras cells [1]) [%] | other results
1 | CCCC(CCC)C(=O)O [valproic acid] | significantly smaller tumors | ~55 | completely inhibited |  | proportion of CRGs whose expression is significantly altered (reversal of CRG signature) ([2]; listed as VA): about 55%
2 | Plac8: shRNA-dependent stable knock-down of up-regulated CRG Plac8 (retroviral) (sense CTGGCAGACCAGCCTGTGTTT; the letters are possibly those of the target site) |  |  |  | −100 | % Change in Tumor Volume (Perturbed vs. Control) (HT-29 cells): −100.00%
3 | Rgs2: shRNA-dependent stable knock-down of up-regulated CRG Rgs2 (retroviral) (sense GCGCAGCTCTGGGCAGAAG; the letters are possibly those of the target site) |  |  |  | −60 | 
4 | Slc14a1: shRNA-dependent stable knock-down of up-regulated CRG Slc14a1 (retroviral) (sense TCCTGATTCTGGTGGGACT; the letters are possibly those of the target site) |  |  |  | 180 | 
5 | CCCC(=O)[O-].[Na+] [sodium butyrate] | significantly smaller tumors | ~55 | completely inhibited |  | NB Tumors (mp53/Ras cells [1]; mp53/Ras cells treated with 2.5 mM NB for three days before injection, 500,000 cells s.c. in CD1 nude mice, four weeks, tumors/injections): 1/16; proportion of CRGs whose expression is significantly altered (reversal of CRG signature) ([2]; listed as NB): about 55%; cell morphology (mp53/Ras cells [3]; transformed cells, 5 mM, three days, 10% FBS medium): dramatic morphological change; cell morphology (YAMC cells [4]): unaffected; increase in cell death (TUNEL) (mp53/Ras cells [5]): greater than five-fold; apoptosis (TUNEL) (YAMC cells [6]): did not decrease apoptosis
6 | Sod3: shRNA-dependent stable knock-down of up-regulated CRG Sod3 (retroviral) (sense GGCGACACGCATGCCAAAG; target site or template, no part of the molecule) |  |  |  | −72 | 
